Consider twelve compounds from US11679107B2 (Eisai R&D Management Co., Ltd., priority 2018, dated 2023).

In assay [1] the test system is NCI-H1568 cells (high MCL1). The experiment in a line: Cell proliferation and viability, CellTiter-Glo, 72 hours. Format: cell-based. The conditions noted are these: for GI50: geometric mean; for CTGlo-ATS Mean MinResponse % 72 h NCIH1568.1: −100% cidal, 0% static, 100% maximal growth. How it is done:
Cell lines were maintained in RPMI-1640 (ATCC 30-2001) supplemented with 10% fetal bovine serum (FBS). The Panc lines were supplemented in addition with insulin and FBS up to 15% total.
Compounds for assay were prepared as stocks in 90% dimethyl sulfoxide (DMSO), assessed for purity by LC/MS, and serially diluted in DMSO using a low-volume liquid handler (VIAFLO ASSIST and VIAFLO II electronic 16-channel pipette, 0.5-12.5 μL) in an 11-point half-log serial dilution to create a master dose response (MDR) source used for all tests.
Transfer of compounds from the MDR source plate to cell assay-ready plates were accomplished directly by low-energy acoustic transfer (ATS100, EDC Biosystems). After transfer of compounds to the assay plate, the dose-response range experienced by cells was typically 10 μM-100 pM (5 logs), and final DMSO concentration in the assay was 0.1%, uniformly. Each assay plate was self-anchored containing vehicle/DMSO negative controls, medium-only/positive controls, and cidal control dose-responses of bortezomib and staurosporine. Assay-ready plates were heat-sealed and stored at −20° C. until used, no longer than one month.
A DMSO-matched time zero (T0) plate was read and then all other plates were incubated at 37° C. with 5% CO2 and 95% relative humidity until the end of assay. Cell proliferation and viability assays were performed 72 hours post-treatment depending on cell growth where at least one doubling would have occurred.
Assessment of viability and proliferation was by measurement of cell ATP content using CellTiter-Glo® Luminescent Cell Viability Assay reagent (Promega) according to the manufacturer's instructions (CellTiter-Glo® Luminescent Cell Viability Assay Technical Bulletin Instructions for Use of Product(s) G7570, G7571, G7572, G7573 Literature #TB288, Revised March 2015), using a microtiter plate reader (Envision, PE).
Cell proliferation was evaluated using the time zero (T0) signal as the positive control and the within-plate vehicle wells (DMSO) as the negative control. Data was converted to percent inhibition and falls into the range from −100% to 100% of growth where −100% equals a cidal response and 100% equals uninhibited or maximal growth. Cell growth at or near 0% is considered a static response.
(ATP-based viability assays read luminescence as a measure of living cells.)

In assay [2] the test system is Ad2 variant pre-mRNAs spliced in HeLa S3 nuclear extracts. The experiment in a line: In vitro splicing assay (IVS), RT-qPCR of spliced product. The conditions noted are these: geometric mean. Format: biochemical. The method, then:
(§1) Batch immobilization of anti-SF3B1 antibody (MBL) to anti-mouse PVT SPA scintillation beads (PerkinElmer) was prepared as follows: for every 2.5 mg of nuclear extracts, 5 μg anti-SF3B1 antibody and 1.5 mg of beads were mixed in 150 μl PBS. The antibody-bead mixture was incubated for 30 min at RT and centrifuged at 18,000 g for 5 min. 150 μl PBS was used to resuspend every 1.5 mg antibody-bead mixture. The beads were suspended and added to the prepared nuclear extracts. The slurry was incubated for 2 h at 4° C. with gentle mixing. The beads were then collected by centrifuging at 18,000 g for 5 min, and washed twice with PBS+0.1% Triton X-100. After a final centrifugation step, every 1.5 mg of beads was suspended with 150 μl of PBS. The SF3b complexes were tested for [^3H]-labelled pladienolide probe binding ([^3H]—PB), synthesized as previously described (Kotake et al., 2007). 100 μl binding reactions were prepared with 50 μl bead slurry and by adding varying concentrations of PB or PB—OH, and after 30 min pre-incubation, 2.5 nM [^3H]—PB was added. The mixture was incubated for 30 min, and luminescence signals were read using a MicroBeta2 Plate Counter (PerkinElmer). Prism 6 (Graphpad) was used for non-linear regression curve fitting of the data. • a. • b. HeLa nuclear extract preparation (for in vitro splicing modulation assay below) • c. HeLa S3 cell pellets were resuspended in hypotonic buffer (10 mM HEPES pH 7.9, 1.5 mM MgCl2, 10 mM KCl, 0.2 mM PMSF, and 0.5 mM DTT) and the suspension was brought up to a total of 5 packed cell volume (PCV). After centrifugation, the supernatant was discarded, and the cells were brought up to 3 PCV with hypotonic buffer and incubated on ice for 10 minutes. Cells were lysed using a dounce homogenizer and then centrifuged. The supernatant was discarded, and the pellet was resuspended with ½ packed nuclear volume (PNV) of low salt buffer (20 mM HEPES pH 7.9, 1.5 mM MgCl2, 20 mM KCl, 0.2 mM EDTA, 25% glycerol, 0.2 mM PMSF, 0.5 mM DTT), followed by ½ PNV of high salt buffer (same as low salt buffer except 1.4 M KCl was used). The nuclei were gently mixed for 30 minutes before centrifuging. The supernatant (nuclear extract) was then dialyzed into storage buffer (20 mM HEPES pH 7.9, 100 mM KCl, 0.2 mM EDTA, 20% glycerol, 0.2 mM PMSF, 0.5 mM DTT). Protein concentration was determined using NanoDrop 8000 UV-Vis spectrophotometer (ThermoFisher Scientific). • d. In vitro splicing assay (IVS)
All Ad2-derived (Pellizzoni et al., 1998) sequences were cloned into pcDNA3.1(+) vector (Promega) using 5′ EcoRI and 3′ XbaI restriction sites. The plasmids were linearized using XbaI and used as DNA templates in the in vitro transcription reactions. The FtzΔi intron-less plasmid (Luo and Reed, 1999) was linearized using EcoRI. All RNAs were in vitro transcribed and then purified using MEGAScript T7 (Invitrogen) and MegaClear (Invitrogen) kits, respectively. For splicing reactions using Ad2 variant pre-mRNAs, […] reactions were prepared using 8 μg nuclear extracts prepared from HeLa S3, 2 ng pre-mRNA, 0.2 ng FTZΔi, and varying concentrations of exemplary payloads or DMSO. After a 15 minute pre-incubation at 30° C., 1 μL splicing activation buffer (0.5 mM ATP, 20 mM creatine phosphate, 1.6 mM MgCl2) was added, and the reactions were incubated for 90 minutes at 30° C. The reactions were then quenched with 13 μL it DMSO, and 25 nL was used for RT-qPCR. RT-qPCR reactions were prepared using TaqMan RNA-to-CT 1-step kit (Life Technologies), RNA from splicing reactions, Ad2 (forward: […]; reverse: […]; probe: […]) and Ftz (forward: […]; reverse: […]; probe: […]) mRNA primer-probe sets. Prism 6 (Graphpad) was used for non-linear regression curve fitting of the formed spliced product and normalized to the control (DMSO) sample.
A general note: Quantitative PCR measures a nucleic acid by following its amplification.

The target in another assay is T1, SF3b complexes (Homo sapiens, UniProt O75533+Q7RTV0).
T1 construct: endogenous in cells; host or cells: Nuclear extracts; A HeLa S3 extract preparation is described for the in vitro splicing assay
The assay is described as follows: Scintillation proximity assay (SPA) with [3H]-labelled pladienolide probe. It counts as binding. To be noted: SF3B1 (WT); geometric mean; read-out: SPA-ATS GMean IC50 (nM) SF3B1 (WT). How it is done:
Scintillation Proximity Assay (SPA) with [^3-H]-Labelled Pladienolide Probe
as §1
Background: Scintillation proximity formats need no separation of bound from free tracer.

The mark [3] stands for this setting: NCI-H1568, 72 h, read-out: CTGlo-ATS GMean GI50 (nM) 72 h NCIH1568.1, NCIH1568.1 cells, 72 h.
[4] abbreviates: Ad2.1 pre-mRNA substrate, read-out: qPCR-IVS-ATS GMean IC50 (nM) Ad2.1.
[5] abbreviates: Ad2.2 pre-mRNA substrate, read-out: qPCR-IVS-ATS GMean IC50 (nM) Ad2.2.
The mark [6] stands for this setting: NCI-H1568, read-out: CTGlo-ATS GMean GI50 (nM) 72 h NCIH1568.1, NCIH1568.1 cells, 72 h.

Read-outs that look alike come from different tables or passages of the source.

In the case of `C/C(=C\c1cc(F)cc(N2CCN(CCCO)CC2)c1)[C@H]1OC(=O)C[C@H](O)CC[C@H](C)[C@@H](OC(=O)N2CCN(C)CC2)/C=C/[C@@H]1C` [Compound 136], the GI50 in assay [1] (setting [3]) came to 7.17 nM. Moreover, in assay [1] (NCIH1568.1 cells, 72 h), the “CTGlo-ATS Mean MinResponse % 72 h NCIH1568.1” value is −90.722%. The figures for the IC50 (in assay [2] (setting [4]); in assay [2] (setting [5]); on SF3b complexes) were 8.64 nM, 14.5 nM and 8.11 nM, respectively.
With `COCCn1cnc2c(F)cc(/C=C(\C)[C@H]3OC(=O)C[C@H](O)CC[C@H](C)[C@@H](OC(=O)N4CCN(C)CC4)/C=C/[C@@H]3C)cc21` [Compound 142], the GI50 in assay [1] (setting [6]) came to 2.19 nM. For the same compound, the “CTGlo-ATS Mean MinResponse % 72 h NCIH1568.1” value in assay [1] (NCIH1568.1 cells, 72 h) is on record as −69.213%. In addition, the IC50 was found to be 12.9 nM in assay [2] (setting [4]), 6.99 nM in assay [2] (setting [5]) and 1.35 nM on SF3b complexes.
For the compound `C/C(=C\c1cc(F)c2nnn(C3CCN(C(=O)OC(C)(C)C)CC3)c2c1)[C@H]1OC(=O)C[C@H](O)CC[C@H](C)[C@@H](OC(=O)N2CCN(C)CC2)/C=C/[C@@H]1C` [Compound 144], in assay [1] (setting [6]), the 50% growth inhibitory concentration (GI50) came to 4.12 nM. Further, the “CTGlo-ATS Mean MinResponse % 72 h NCIH1568.1” value in assay [1] (NCIH1568.1 cells, 72 h) is listed as −95.432%. The figures for the IC50 (in assay [2] (setting [4]); in assay [2] (setting [5]); at SF3b complexes) were 23 nM, 17.8 nM and 12.9 nM, respectively.
The like results for `C/C(=C\c1cc(F)c2nnn(Cc3ccc(Cl)cc3)c2c1)[C@H]1OC(=O)C[C@H](O)CC[C@H](C)[C@@H](OC(=O)N2CCN(C)CC2)/C=C/[C@@H]1C` [Compound 145] were, in that order, 25 nM, −66.236%, 688 nM, 38.1 nM and 69.4 nM.
As to `CC(=O)N1CCC(n2cnc3c(F)cc(/C=C(\C)[C@H]4OC(=O)C[C@H](O)CC[C@H](C)[C@@H](OC(=O)N5CCN(C)CC5)/C=C/[C@@H]4C)cc32)CC1` [Compound 146], the GI50 in assay [1] (setting [3]) worked out at 2.79 nM. Besides, the “CTGlo-ATS Mean MinResponse % 72 h NCIH1568.1” value in assay [1] (NCIH1568.1 cells, 72 h) was −88.975%. The figures for the IC50 (in assay [2] (setting [4]); in assay [2] (setting [5]); at SF3b complexes) were 11.1 nM, 12.7 nM and 22.7 nM, respectively.
With `C/C(=C\c1cc(F)c2nnn([C@H]3CC[C@H](O)CC3)c2c1)[C@H]1OC(=O)C[C@H](O)CC[C@H](C)[C@@H](OC(=O)N2CCN(C)CC2)/C=C/[C@@H]1C` [Compound 147], the concentration for 50% growth inhibition (GI50) in assay [1] (setting [6]) was determined as 1.56 nM. Besides, in assay [1] (NCIH1568.1 cells, 72 h), the “CTGlo-ATS Mean MinResponse % 72 h NCIH1568.1” value is given as −91.884%. Besides, the results for the IC50 (in assay [2] (setting [4]); in assay [2] (setting [5]); on SF3b complexes) were 9.57 nM, 7.43 nM and 7.3 nM, respectively.
`C/C(=C\c1cc(F)c2nnn([C@@H](C)CO)c2c1)[C@H]1OC(=O)C[C@H](O)CC[C@H](C)[C@@H](OC(=O)N2CCN(C)CC2)/C=C/[C@@H]1C` [Compound 149]: the GI50 in assay [1] (setting [6]) came to 1.66 nM. In addition, the “CTGlo-ATS Mean MinResponse % 72 h NCIH1568.1” value in assay [1] (NCIH1568.1 cells, 72 h) is recorded as −73.106%. Moreover, the IC50 in assay [2] (setting [4]) came out at 9.13 nM; in assay [2] (setting [5]) it was 8.71 nM; on SF3b complexes it was 1.86 nM.
The corresponding values for `C/C(=C\c1cc(F)c2nnn([C@H](C)CO)c2c1)[C@H]1OC(=O)C[C@H](O)CC[C@H](C)[C@@H](OC(=O)N2CCN(C)CC2)/C=C/[C@@H]1C` [Compound 150] are 2.19 nM, −68.000%, 8.58 nM, 11 nM and 1.32 nM.
In the case of `C/C(=C\c1cc(F)cc(N2CCN(C(=O)[C@H]3CCOC3)CC2)c1)[C@H]1OC(=O)C[C@H](O)CC[C@H](C)[C@@H](OC(=O)N2CCN(C)CC2)/C=C/[C@@H]1C` [Compound 151], the GI50 in assay [1] (setting [3]) stood at 2.24 nM. Moreover, the “CTGlo-ATS Mean MinResponse % 72 h NCIH1568.1” value in assay [1] (NCIH1568.1 cells, 72 h) is recorded as −83.213%. Further, the IC50 was 17.9 nM in assay [2] (setting [4]), 11.4 nM in assay [2] (setting [5]) and 3.41 nM at SF3b complexes.
The corresponding values for `C/C(=C\c1cc(F)cc(N2CCN(C(=O)[C@@H]3CCOC3)CC2)c1)[C@H]1OC(=O)C[C@H](O)CC[C@H](C)[C@@H](OC(=O)N2CCN(C)CC2)/C=C/[C@@H]1C` [Compound 152] are 1.51 nM, −80.509%, 16.2 nM, 8.39 nM and 3.83 nM.
As to `C/C(=C\c1cc(F)cc(N2CCN(C(=O)C3COC3)CC2)c1)[C@H]1OC(=O)C[C@H](O)CC[C@H](C)[C@@H](OC(=O)N2CCN(C)CC2)/C=C/[C@@H]1C` [Compound 153], the GI50 in assay [1] (setting [6]) was found to be 2.34 nM. In addition, in assay [1] (NCIH1568.1 cells, 72 h), the “CTGlo-ATS Mean MinResponse % 72 h NCIH1568.1” value is −81.206%. For the same compound, the IC50 in assay [2] (setting [4]) came out at 14.5 nM; in assay [2] (setting [5]), 14.8 nM; on SF3b complexes it was 4.83 nM.
The corresponding values for `C/C(=C\c1cc(F)cc(N2CCN(C(=O)C3(C)COC3)CC2)c1)[C@H]1OC(=O)C[C@H](O)CC[C@H](C)[C@@H](OC(=O)N2CCN(C)CC2)/C=C/[C@@H]1C` [Compound 154] are 1.85 nM, −85.459%, 20 nM, 8.72 nM and 3.75 nM.

As a reminder, the GI50 is the concentration that inhibits growth by half. The term IC50 denotes the concentration at which inhibition is half-maximal.
